Test results reported in patent US20140329868A1, “METHODS FOR TREATING HYPERTENSION” (TAKEDA PHARMACEUTICALS U.S.A., INC., priority 2005, published 2014).

Assays:
[1] = test system: subjects having a systolic BP≧160 mmHg or diastolic BP≧95 mmHg (elevated blood pressure); experiment: Example 3: blood pressure change in subjects with elevated blood pressure, none taking angiotensin antagonists (two double-blind studies); assay type: in vivo, human
Procedure: None of these subjects were taking any angiotensin antagonists, but might have been taking some other type of antihypertensive drug at the baseline (start) of the study. These 187 subjects were part of two (2) DB studies. One study was of 28 weeks in duration during which subjects received 80 mg, 120 mg or 240 mg QD of febuxostat or placebo or allopurinol 300 or 100 mg QD, depending on the subject's renal function. The second study was of 52 weeks in duration during which subjects received 80 mg or 120 mg QD of febuxostat or allopurinol 300 mg QD. Of these 187 subjects, all completed 4 weeks of treatment and 132 completed 28 weeks of treatment. A total of 52 weeks of treatment was completed by 15 subjects in the febuxostat 80 mg QD group, 11 in the febuxostat 120 mg QD group and 22 in the allopurinol 300/100 mg QD group. Because of the shorter duration of one of the 2 DB studies, no subject in the placebo and febuxostat 240 mg QD groups were treated for 52 weeks.

[2] = test system: oxonic acid (OA)-induced hyperuricemic model in Sprague-Dawley rats; experiment: Example 4: systolic blood pressure by tail cuff in conscious normal and OA-dosed rats; assay type: in vivo; conditions: FIG. 2
Procedure: (§1) Materials and Methods. To produce hyperuricemia, rats received OA (Sigma, St Louis Mo., USA) 750 mg/kg body weight daily by gastric gavage. To investigate the treatment effect of febuxostat (also referred to herein as “Fx”), the drug was administered in drinking water at 50 mg/L (approximately 5-6 mg/kg/day) four weeks after OA dosing while the respective controls received 5.84 mg/L of NaCl in drinking water (to maintain a salt concentration equivalent to the Febuxostat-containing water). […] Body weight, food and water intakes were measured daily. Systolic blood pressure, obtained in conscious rats by a tail cuff sphygmomanometer, and plasma uric acid were measured in all animals at baseline and at the end of four and eight weeks. […]
(§2) Evaluation. Food and water intake were determined daily. Systolic blood pressure (hereinafter “SBP”) was measured in conscious animals by a tail cuff sphygmomanometer using an automated system (XBP-100, Kent Scientific Co, USA). […] Plasma UA, insulin and triglycerides were quantified using commercial kits (Diagnostic Chemicals Ltd, USA; Crystalchem, USA and Spinreact, Spain, respectively).
(§3) Statistical Analysis. Values were expressed as mean±standard error of the mean (hereinafter “SEM”). In the study, values from the respective four treatment groups were analyzed by one-way analysis of variance (hereinafter “ANOVA”). […]

[3] = test system: oxonic acid (OA)-induced hyperuricemic model in Sprague-Dawley rats; experiment: Example 4: plasma uric acid in normal and OA-dosed rats; assay type: in vivo
Procedure: as §1, §2, §3

[4] = test system: subjects having a systolic BP≧160 mmHg or diastolic BP≧95 mmHg (elevated blood pressure); experiment: Example 2: blood pressure change in subjects with elevated blood pressure, none taking angiotensin-converting enzyme inhibitors (two double-blind studies); assay type: in vivo, human
Procedure: None of these subjects were taking any angiotensin-coverting enzyme inhibitors, but might have been taking some other type of antihypertensive drug at the baseline (start) of the study. These 158 subjects were part of two (2) DB studies. One study was of 28 weeks in duration during which subjects received 80 mg, 120 mg or 240 mg QD of febuxostat or placebo or allopurinol 300 or 100 mg QD, depending on the subject's renal function. The second study was 52 weeks in duration during which subjects received 80 mg or 120 mg QD of febuxostat or allopurinol 300 mg QD. […] A total of 52 weeks of treatment was completed by 15 subjects in the febuxostat 80 mg QD group, 9 in the febuxostat 120 mg QD group and 17 in the allopurinol 300/100 mg QD group. Because of the shorter duration of one of the two DB studies, no subject in the placebo and febuxostat 240 mg QD groups was treated for 52 weeks.

[5] = 80 mg QD, after 4 weeks of treatment
[6] = 80 mg QD, after 28 weeks of treatment
[7] = 80 mg QD, after 52 weeks of treatment
[8] = 120 mg QD, after 4 weeks of treatment
[9] = 120 mg QD, after 28 weeks of treatment
[10] = 120 mg QD, after 52 weeks of treatment
[11] = 240 mg QD, after 4 weeks of treatment
[12] = 240 mg QD, after 28 weeks of treatment

## Cc1nc(-c2ccc(OCC(C)C)c(C#N)c2)sc1C(=O)O [febuxostat, 2-[3-cyano-4-(2-methylpropoxy)phenyl]-4-methylthiazole-5-carboxylic acid]
[1]; [5]
  mean change from baseline for diastolic BP: −3.1 mmHg
  mean change from baseline for mean arterial BP: −4.3 mmHg
  mean change from baseline for systolic BP: −6.7 mmHg
[1]; [6]
  mean change from baseline for diastolic BP: −7.3 mmHg
  mean change from baseline for mean arterial BP: −9.0 mmHg
  mean change from baseline for systolic BP: −12.6 mmHg
[1]; [7]
  mean change from baseline for diastolic BP: −8.4 mmHg
  mean change from baseline for mean arterial BP: −11.6 mmHg
  mean change from baseline for systolic BP: −17.9 mmHg
[1]; [8]
  mean change from baseline for diastolic BP: −7.5 mmHg
  mean change from baseline for mean arterial BP: −7.8 mmHg
  mean change from baseline for systolic BP: −8.5 mmHg
[1]; [9]
  mean change from baseline for diastolic BP: −8.5 mmHg
  mean change from baseline for mean arterial BP: −9.9 mmHg
  mean change from baseline for systolic BP: −12.8 mmHg
[1]; [10]
  mean change from baseline for diastolic BP: −7.4 mmHg
  mean change from baseline for mean arterial BP: −11.1 mmHg
  mean change from baseline for systolic BP: −18.6 mmHg
[1]; [11]
  mean change from baseline for diastolic BP: −9.1 mmHg
  mean change from baseline for mean arterial BP: −9.8 mmHg
  mean change from baseline for systolic BP: −11.3 mmHg
[1]; [12]
  mean change from baseline for diastolic BP: −4.9 mmHg
  mean change from baseline for mean arterial BP: −6.3 mmHg
  mean change from baseline for systolic BP: −9.2 mmHg
[2]; OA-dosed conscious rats
  systolic blood pressure by tail cuff (effect in words): significant but partial decrease in systolic BP
[2]; normal conscious rats
  systolic blood pressure by tail cuff (effect in words): did not alter blood pressure in normal rats
[3]; OA-dosed rats, febuxostat added beginning at 4 weeks, FIG. 1
  plasma uric acid levels (effect in words): reduced the uric acid levels back into the normal range
[3]; normal rats receiving febuxostat, difference not statistically significant
  uric acid levels relative to control: approximately 53 % of control values
[4]; [5]
  mean change from baseline for diastolic BP: −4.7 mmHg
  mean change from baseline for mean arterial BP: −5.5 mmHg
  mean change from baseline for systolic BP: −7.2 mmHg
[4]; [6]
  mean change from baseline for diastolic BP: −8.7 mmHg
  mean change from baseline for mean arterial BP: −9.2 mmHg
  mean change from baseline for systolic BP: −10.4 mmHg
[4]; [7]
  mean change from baseline for diastolic BP: −8.1 mmHg
  mean change from baseline for mean arterial BP: −8.5 mmHg
  mean change from baseline for systolic BP: −9.5 mmHg
[4]; [8]
  mean change from baseline for diastolic BP: −7.2 mmHg
  mean change from baseline for mean arterial BP: −7.6 mmHg
  mean change from baseline for systolic BP: −8.3 mmHg
[4]; [9]
  mean change from baseline for diastolic BP: −7.5 mmHg
  mean change from baseline for mean arterial BP: −8.7 mmHg
  mean change from baseline for systolic BP: −11.0 mmHg
[4]; [10]
  mean change from baseline for diastolic BP: −7.2 mmHg
  mean change from baseline for mean arterial BP: −11.3 mmHg
  mean change from baseline for systolic BP: −19.4 mmHg
[4]; [11]
  mean change from baseline for diastolic BP: −9.3 mmHg
  mean change from baseline for mean arterial BP: −12.5 mmHg
  mean change from baseline for systolic BP: −18.9 mmHg
[4]; [12]
  mean change from baseline for diastolic BP: −10.0 mmHg
  mean change from baseline for mean arterial BP: −12.9 mmHg
  mean change from baseline for systolic BP: −18.8 mmHg
